The target of one experiment is T1, 5-Lipoxygenase (Homo sapiens, UniProt P09917).
T1 construct: endogenous in cells; host or cells: whole blood of male human donors (results per 10^6 neutrophils)
T1 sequence (P09917 1-674): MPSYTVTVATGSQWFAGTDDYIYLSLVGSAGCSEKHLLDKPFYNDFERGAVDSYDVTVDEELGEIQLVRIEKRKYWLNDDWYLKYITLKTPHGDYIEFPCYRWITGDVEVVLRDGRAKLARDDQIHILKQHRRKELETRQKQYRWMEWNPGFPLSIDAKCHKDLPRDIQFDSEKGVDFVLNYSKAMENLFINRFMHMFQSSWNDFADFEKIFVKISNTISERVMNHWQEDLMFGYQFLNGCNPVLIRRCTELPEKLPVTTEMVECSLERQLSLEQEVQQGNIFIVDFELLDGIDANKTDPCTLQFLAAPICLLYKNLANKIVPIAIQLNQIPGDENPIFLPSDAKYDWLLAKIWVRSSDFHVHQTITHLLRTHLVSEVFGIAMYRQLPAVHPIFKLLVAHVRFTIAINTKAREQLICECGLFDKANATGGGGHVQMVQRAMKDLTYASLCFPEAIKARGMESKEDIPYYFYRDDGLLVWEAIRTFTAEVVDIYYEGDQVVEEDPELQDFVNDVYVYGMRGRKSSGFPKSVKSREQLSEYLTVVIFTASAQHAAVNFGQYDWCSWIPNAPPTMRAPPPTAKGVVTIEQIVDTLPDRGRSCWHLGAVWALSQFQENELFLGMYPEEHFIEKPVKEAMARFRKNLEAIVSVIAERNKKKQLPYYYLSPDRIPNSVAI
In words: Inhibition of 5-Lipoxygenase in Human Whole Blood (ionophore A23187-stimulated LTB4). It counts as cell-based. The procedure: 1. Inhibition of 5-Lipoxygenase in Human Whole Blood
Blood is obtained in 50-100 ml quantities from male donors. White blood cell counts and differentials are made. Two ml of blood are placed in a 15 ml polypropylene test tube. Test compounds are solubilized in dimethylsulfoxide and diluted in 1:10 in 10% bovine serum albumin in phosphate buffered saline, pH 7.4 resulting in a final dimethylsulfoxide concentration of 0.1% in the blood. Then, solutions of test compounds are added to the blood in a shaking water bath at 37° C. for 10 minutes prior to the addition of 30 μM calcium ionophore (A23187, Sigma). After ionophore administration, whole blood samples are mixed and incubated for 20 minutes at 37° C. in a shaking water bath. Incubation is terminated by placing samples in an ice bath and immediately adding ethylene glycol-bis-(β-aminoethyl ether)-N, N,N',N'-tetraacetic acid (10 mM). Samples are mixed and centrifuged at 1200×g for 15 minutes at […]. Preparation of samples for evaluation by RIA or ELISA is carded out by the following protocol. Plasma is removed from sample tubes, placed in 15 ml polypropylene test tubes containing 8 ml methanol, and then vortexed to precipitate protein. Samples are stored at -70° C. overnight. The next day, samples are centrifuged at 200×g for 15 minutes at 4° C. to pellet the precipitate. Samples are dried in a Savant SpeedVac Concentrator, Model SVC 200H, reconstituted to original volume with ice cold RIA or ELISA buffer, and stored at -70° C. until assayed. The assay for eicosanoids (LTB4, TxB2, and PGE2) is performed as described by the manufacturer of the [^3 H]-RIA kit or ELISA kit (LTB4 -Amersham, TxB2 and PGE2 - Caymen Chemical).
The total eicosanoid level in 2 ml of blood is calculated and reported as ng/10^6 neutrophils. Significance is determined by a one-way analysis of variance with least significant difference (LSD) comparisons to control (p≤0.05) and IC50 's (μM) are determined by regression analysis (Finney, 1978). Drug effects are expressed as percent change from control values.

In another experiment the test system is Lipoxygenase. Briefly: Ex-Vivo Measurement of Lipoxygenase Inhibition in Orally Dosed Rats (LTB4 in A23187-stimulated blood). On the set-up: species or system Male Sprague Dawley rats. The following applies: ex vivo rat, p.o., pretreatment 3 hr. The procedure: 2. […] After an interval of 3 or 6 hours, the rats were anesthetized with metofane (n =4/group) and blood collected in heparinized tubes. White blood cell counts and differentials were made. One ml of blood from each animal was placed in a 5 ml plastic tube in a shaker bath at 37° C. A23187 at a final concentration of 10 μM was added to the blood and the blood vortexed and incubated for 15 min at 37° C. with gentle shaking. Incubation was terminated by vortexing sample and centrifuging immediately at 1200 xG for 15 min at 4° C. The plasma was transferred to 15 ml plastic tubes each containing 8 ml of methanol to precipitate protein followed by vortexing. The samples were stored at -70° C. overnight and the next day the samples were centrifuged at 800 xG for 15 min to pellet the precipitate. The samples were dried in a Savant SpeedVac Concentrator Model SVC 200H and reconstituted to the original volume with cold RIA or ELISA buffer. The reconstituted samples were stored at -70° C. until assayed. The assay for LTB4 was perforated according to the directions of the [^3 H]RIA kit or ELISA kit (Seragen). The total metabolite level in 1 ml of blood is calculated and reported as ng/10^6 neutrophils. Significance is determined by a one-way analysis of variance with LSD comparisons to control (p<0.05).

For another experiment, the system named is LTB4 Synthesis. In words: Reverse Passive Arthus Reaction (pleurisy, LTB4 in pleural exudate). The class given is in vivo, male Lewis rats. The conditions noted are these: for % Inhibition LTB4 Synthesis: 25 mg/kg p.o.; for ED50: Rattus norvegicus, po, ED50 printed in parentheses; for ED50 / % Inhibition of LTB4: standard drugs. As for the experimental part:
3. Reverse Passive Arthus Reaction
A reverse passive Arthus reaction is induced in the pleural cavity of male Lewis rats (150°-200 g; fasted overnight prior to use) by the intravenous administration of bovine serum albumin (BSA; 4 mg/0.2 ml) followed 30 minutes later by the injection of rabbit anti-BSA (1 mg/0.2 ml; lyophilized IgG fraction; Organon Teknika, West Chester, Pa.) into the right pleural space under halothane anesthesia. Drugs or vehicle (0.5% Tween-80) control are administered orally in a volume of 1 ml/100 g body weight at 1 hour prior to the anti-BSA. Animals are sacrificed at either the time of peak eicosanoid production (i.e. 5 minutes after anti-BSA for immunoreactive TxB2, 10 minutes for immunoreactive LTB4, 20 minutes for immunoreactive LTC4) or at the time of peak neutrophil infiltration (4 hours after anti-BSA) by CO2 inhalation. The pleural cavity is then exposed, the fluid exudate removed by gentle vacuum aspiration and the volume of exudate is recorded. For the determination of cellular infiltration, the pleural cavity is rinsed with 3 ml of 0.1% EDTA in sterile saline, and the recovered wash is pooled with the exudate. Cell number is determined on a model ZBI Coulter counter. For determination of eicosanoid production, undiluted pleural exudate is microfuged and the supernatant is extracted with ethanol (8-10 times volume). Extracts are either stored at -20° C., or are evaporated to dryness under a stream of N2 and reconstituted in radioimmunoassay (RIA) buffer.
Eicosanoids are quantitated by RIA according to the procedure specified by the RIA kit manufacturer (Advanced Magnetics, Cambridge, MA). Briefly, 100 μl of ^3 H-labeled eicosanoid and 100 μl of specific antibody ,are sequentially added to 100 μl of extracted pleural exudate in BGG-phosphate buffer which contains 0.01M phosphate, 0.1% bovine gamma globulin and 0.1% sodium azide at pH 7.0. Antibody-bound eicosanoid is separated from unbound eicosanoid by the addition of 750 μl of dextran (0.4%)-coated charcoal (Norit A) containing 0.1% sodium azide. The mixture is centrifuged at 2000 RPM at 5° C. for 15 minutes to pellet the charcoal and adsorbed unbound eicosanoid. Antibody-bound labeled eicosanoid is quantitated by counting in a liquid scintillation counter, and is correlated to concentration by a standard curve.

For `Cc1ccc(-c2nc(CCOc3ccc(CN(O)C(N)=O)cc3)c(C)o2)cc1` [Example 11, 1-Hydroxy-1-[4-[2-(5-methyl-2-(p-tolyl)-oxazol-4-yl]-ethoxy]-benzyl]-urea], at 5-Lipoxygenase, 1 µM produced 40% inhibition.
On to `Cc1cc(OCCc2nc(-c3ccccc3)oc2C)cc(C)c1CN(O)C(N)=O` [Example 9, 1-[2,6-Dimethyl-4-[2-(5-methyl-2-phenyl-oxazol-4-yl)-ethoxy]-benzyl]-1-hydroxy-urea], for which the inhibition (as a rule, how much of the control response was suppressed) at 10 µM at 5-Lipoxygenase stood at 42%.
In the case of `NC(=O)N(O)Cc1ccc(OCCc2csc(-c3ccccc3)n2)cc1` [Example 17, 1-Hydroxy-1-[4-[2-(2-phenyl-thiazol-4-yl)-ethoxy]-benzyl]-urea], the inhibition at 10 µM against 5-Lipoxygenase is 93%.
For `Cc1oc(-c2ccccc2)nc1CCOc1ccc(CN(O)C(N)=O)cc1F` [Example 12, 1-[3-Fluoro-4-[2-(5-methyl-2-phenyl-oxazol-4-yl)-ethoxy]-benzyl]-1-hydroxy-urea], the “% Inhibition of LTB4” value in the experiment on Lipoxygenase (dose 10 (mg/kg)) is recorded as 52%. In the experiment with LTB4 Synthesis, the “% Inhibition LTB4 Synthesis” value was 58%. The compound further showed an inhibition at 1 µM against 5-Lipoxygenase of 71%.
For the compound `Cc1oc(-c2ccc(SC(F)(F)F)cc2)nc1CCOc1ccc(CN(O)C(N)=O)cc1` [Example 16, 1-Hydroxy-1-[4-[2-[5-methyl-2-(4-trifluoromethylsulfanyl-phenyl)-oxazol-4yl]-ethoxy]-benzyl]-urea], 1 µM produced 50% inhibition on 5-Lipoxygenase.
For the compound `Cc1oc(-c2ccc(F)cc2)nc1CCOc1ccc(CN(O)C(N)=O)cc1` [Example 8, 1-[4-[2-[2-(4-Fluoro-phenyl)-5-methyl-oxazol-4-yl)-ethoxy]-benzyl]-1-hydroxy-urea], the “% Inhibition of LTB4” value with Lipoxygenase (dose 10 (mg/kg)) is listed as 66%. This compound also showed an inhibition at 1 µM against 5-Lipoxygenase of 70%.
In the case of `COc1ccc(-c2nc(CCOc3ccc(CN(O)C(N)=O)cc3)c(C)o2)cc1` [Example 3, 1-Hydroxy-1-[4-[2-[2-(4-methoxy-phenyl)-5-methyl-oxazol-4-yl]-ethoxy]benzyl]-urea], the “% Inhibition of LTB4” value in the experiment on Lipoxygenase (dose 25 (mg/kg)) is 32%. The compound also gave an inhibition at 1 µM against 5-Lipoxygenase of 57%.
Take `O=C1CCN(c2ccccc2)N1` [Phenidone, reference compound]: the ED50 (in general, the dose at which the effect has come halfway, by size or by number of responders) in the experiment with LTB4 Synthesis was 10 mg/kg.
As to `NC(=S)N(O)Cc1ccc(OCCc2csc(-c3ccccc3)n2)cc1` [Example 18], 10 µM produced 94% inhibition at 5-Lipoxygenase.
Take `Cc1oc(-c2ccccc2F)nc1CCOc1ccc(CN(O)C(N)=O)cc1` [Example 6, 1-[4-[2-[2-(2-Fluoro-phenyl)-5-methyl-oxazol-4-yl]-ethoxy]-benzyl]-1-hydroxy-urea]: the “% Inhibition of LTB4” value with Lipoxygenase (dose 10 (mg/kg)) is 71%. Also, the “% Inhibition LTB4 Synthesis” value with LTB4 Synthesis is recorded as 48%. In addition, testing at 1 µM on 5-Lipoxygenase gave an inhibition of 54%.
The compound `Cc1oc(-c2ccc(C(F)(F)F)cc2)nc1CCOc1c(Cl)cc(CN(O)C(N)=O)cc1Cl` [Example 15, 1-[3,5-Dichloro-4-[2-[5-methyl-2-(4-trifluoromethyl-phenyl)-oxazol-4-yl]ethoxy]-benzyl]-1-hydroxy-urea] yielded an inhibition at 1 µM against 5-Lipoxygenase of 38%.
Still for that read-out and setting: to `NC(=O)N(O)Cc1cccc(OCCc2csc(-c3ccc(C(F)(F)F)cc3)n2)c1` [Example 20, 1-Hydroxy-1-[3-[2-[2-(4-trifluoromethyl-phenyl)-thiazol-4-yl]-ethoxy]-benzyl]-urea] belongs 30%.
The same measure, in the same setting: the value for `Cc1oc(-c2ccc(C(F)(F)F)cc2)nc1CCOc1ccc(CN(O)C(N)=O)cc1F` [Example 14] was 36%.
Regarding `COc1ccc2cc([C@H](C)C(=O)O)ccc2c1` [Naproxen, reference compound], the “% Inhibition of LTB4” value with LTB4 Synthesis (4 mg/kg p.o.) was 0%.
For `CC(=O)N(O)Cc1ccc(OCCN(C)c2nc3ccccc3o2)cc1` [Example 23, N-[4-[2-(Benzoxazol-2-yl-methyl-amino)-ethoxy]-benzyl]-N-hydroxy-acetamide], in the experiment with Lipoxygenase (dose 25 (mg/kg)), the “% Inhibition of LTB4” value is recorded as 78%. Testing at 1 µM against 5-Lipoxygenase gave an inhibition of 39%.
`CN(CCOc1ccc(CN(O)C(N)=O)cc1)c1nc2ccccc2o1` [Example 22, 1-[4-[2-(-Benzoxazol-2-yl-methyl-amino)-ethoxy]-benzyl]-1-hydroxy-urea] came in with an inhibition at 10 µM against 5-Lipoxygenase of 60%.
Consider `COc1ccc2c(c1)c(CC(=O)O)c(C)n2C(=O)c1ccc(Cl)cc1` [Indomethacin, reference compound], for which the “% Inhibition of LTB4” value with LTB4 Synthesis (4 mg/kg p.o.) was determined as 12%.
In turn, `Cc1oc(-c2ccccc2)nc1CCOc1cccc(C(C)N(O)C(N)=O)c1` (centres unmarked) [Example 5, 1-Hydroxy-1-[1-[3-[2-(5-methyl-2-phenyl-oxazol-4-yl)-ethoxy]-phenyl]ethyl]-urea] had an inhibition at 1 µM against 5-Lipoxygenase of 34%.
With `COC(=O)N(O)Cc1ccc(OCCN(C)c2nc3ccccc3o2)cc1` [Example 24], the inhibition at 10 µM against 5-Lipoxygenase amounted to 77%.
`NC1=NN(c2cccc(C(F)(F)F)c2)CC1` [BW755C, reference compound]: in the experiment with LTB4 Synthesis, the median effective dose (ED50) turned out to be 23 mg/kg.
On to `CC(C(=O)O)c1cccc(C(=O)c2ccccc2)c1` (centres unmarked) [Ketoprofen, reference compound], for which the “% Inhibition of LTB4” value in the experiment with LTB4 Synthesis (10 mg/kg p.o.) was determined as 35%.
Consider `O=C(O)Cc1ccccc1Nc1c(Cl)cccc1Cl` [Diclofenac, reference compound], for which, in the experiment with LTB4 Synthesis (10 mg/kg p.o.), the “% Inhibition of LTB4” value is listed as 0%.

The record behind these values is US5428048A, “Aryl-N-hydroxyureas as inhibitors of 5-lipoxygenase and anto-arteriosclerotic agents” (American Home Products Corporation, priority 1993, dated 1995).
